This is an account of results in patent US8865623B2, “Herbicidally active cyclic diones and derivatives thereof, processes for their preparation, compositions, and method of controlling weeds” (Syngenta Limited, priority 2009, dated 2014).

Type in all cases: in vivo
The test system of assay [1] is Alopecurus myosuroides (ALOMY). Briefly: Pre-emergence herbicidal activity, glasshouse pot test. The conditions noted are these: evaluated after 13 days; for pest or weed control at 250 g/ha: Alopecurus myosuroides, 312 h, Rate 250 g/ha, read-out: Pre-emergence activity ALOMY (100=total damage to plant; 0=no damage to plant). In a few lines: (§1)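 Spray solution: technical a.i. formulated in acetone/water (50:50) with 0.5% Tween 20, diluted in water. Applied to pots 1 d (pre) or 8 d (post) after sowing; glasshouse 24/16° C day/night, 14 h light, 65% humidity. Rated at 13 d, 0–100 damage.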

The test system of assay [2] is Avena fatua (AVEFA). The assay is described as above. The following applies: evaluated after 13 days; for pest or weed control at 250 g/ha: Avena fatua, 312 h, Rate 250 g/ha, read-out: Pre-emergence activity AVEFA (100=total damage to plant; 0=no damage to plant). In a few lines: as §1
Assay [3] has as its system Echinochloa crus-galli (ECHCG). The description is as above. The following applies: evaluated after 13 days; for pest or weed control at 250 g/ha: Echinochloa crus-galli, 312 h, Rate 250 g/ha, read-out: Pre-emergence activity ECHCG (100=total damage to plant; 0=no damage to plant). In a few lines:
as §1

Assay [4] has as its system Lolium perenne (LOLPE). The assay is described as above. The following applies: evaluated after 13 days; for pest or weed control at 250 g/ha: Lolium perenne, 312 h, Rate 250 g/ha, read-out: Pre-emergence activity LOLPE (100=total damage to plant; 0=no damage to plant). In a few lines:
as §1

The test system of assay [5] is Alopecurus myosuroides (ALOMY). The assay can be described thus: Post-emergence herbicidal activity, glasshouse pot test. The following applies: rate 250 g/ha, evaluated after 13 days; for pest or weed control at 250 g/ha: Alopecurus myosuroides, 312 h, read-out: Post-emergence activity ALOMY (100=total damage to plant; 0=no damage to plant). A digest of the protocol:
as §1

Assay [6] concerns Avena fatua (AVEFA). Described as above. The conditions noted are these: rate 250 g/ha, evaluated after 13 days; for pest or weed control at 250 g/ha: Avena fatua, 312 h, read-out: Post-emergence activity AVEFA (100=total damage to plant; 0=no damage to plant). In a few lines:
as §1

For assay [7], the system named is Echinochloa crus-galli (ECHCG). Described as above. The following applies: rate 250 g/ha, evaluated after 13 days; for pest or weed control at 250 g/ha: Echinochloa crus-galli, 312 h, read-out: Post-emergence activity ECHCG (100=total damage to plant; 0=no damage to plant). In a few lines: as §1
Assay [8] deals with Lolium perenne (LOLPE). The description is as above. The following applies: rate 250 g/ha, evaluated after 13 days; for pest or weed control at 250 g/ha: Lolium perenne, 312 h, read-out: Post-emergence activity LOLPE (100=total damage to plant; 0=no damage to plant). In a few lines:
as §1

Turning to `CCc1ccc(Oc2ccc(C(F)(F)F)c(Cl)c2)cc1C1=C(O)C(C)(C)OC(C)(C)C1=O` [Example A-101], the pest or weed control at 250 g/ha in assay [1] (pre-emergence spray) came to 60%; with Avena fatua (AVEFA) [2] (pre-emergence spray), 80%; in assay [3] (pre-emergence spray), 90%; in the assay with Lolium perenne (LOLPE) [4] (pre-emergence spray) it was 90%; in assay [5] (glasshouse) it was 100%; in the assay on Avena fatua (AVEFA) [6] (glasshouse), 90%. The pest or weed control at 250 g/ha (in assay [7] (glasshouse); with Lolium perenne (LOLPE) [8] (glasshouse)) was 100% in each case.
For `CC1(C)OC(C)(C)C(O)=C(c2cc(Oc3ccc(Cl)cc3F)ccc2C2CC2)C1=O` [Example A-348], the pest or weed control at 250 g/ha in assay [1] (pre-emergence) was 60%; with Avena fatua (AVEFA) [2] (pre-emergence) it was 10%; in assay [3] (pre-emergence), 100%; with Lolium perenne (LOLPE) [4] (pre-emergence), 100%; in assay [5], 100%; in the assay on Avena fatua (AVEFA) [6], 60%. Also, the pest or weed control at 250 g/ha was 100% in assay [7] and 90% in the assay with Lolium perenne (LOLPE) [8].
`CC1(C)OC(C)(C)C(O)=C(c2cc(Oc3ccc4cc(Cl)ccc4n3)ccc2C2CC2)C1=O` [Example A-312]: the pest or weed control at 250 g/ha in assay [1] (pre-emergence spray) was determined as 70%; in the assay with Avena fatua (AVEFA) [2] (pre-emergence spray), 70%; in assay [3] (pre-emergence spray), 100%; in the assay with Lolium perenne (LOLPE) [4] (pre-emergence spray), 100%; in assay [5] (glasshouse) it was 100%; in the assay on Avena fatua (AVEFA) [6] (glasshouse), 100%. Also, the pest or weed control at 250 g/ha (in assay [7] (glasshouse); with Lolium perenne (LOLPE) [8] (glasshouse)) was 100% in each case.
As for `CCc1ccc(Oc2ncc(Cl)cc2C(F)(F)F)cc1C1=C(O)CC2(CCOCC2)CC1=O` [Example A-268], the pest or weed control at 250 g/ha in assay [1] (pre-emergence spray) was 90%; with Avena fatua (AVEFA) [2] (pre-emergence spray), 80%; in assay [3] (pre-emergence spray), 100%; in the assay with Lolium perenne (LOLPE) [4] (pre-emergence spray), 100%; in assay [5] (glasshouse) it was 90%; in the assay with Avena fatua (AVEFA) [6] (glasshouse), 90%. Further, the pest or weed control at 250 g/ha in assay [7] (glasshouse) came to 100%; with Lolium perenne (LOLPE) [8] (glasshouse), 70%.
On to `CC1(C)OC(C)(C)C(O)=C(c2cc(Oc3ccc(F)cc3)ccc2C2CC2)C1=O` [Example A-353], for which the pest or weed control at 250 g/ha turned out to be 0% in assay [1] (pre-emergence); 0% in the assay on Avena fatua (AVEFA) [2] (pre-emergence); 100% in assay [3] (pre-emergence); 30% in the assay with Lolium perenne (LOLPE) [4] (pre-emergence); 10% in assay [5]; 10% in the assay with Avena fatua (AVEFA) [6]. For the same compound, the pest or weed control at 250 g/ha came to 100% in assay [7] and 50% in the assay on Lolium perenne (LOLPE) [8].
In the case of `CCc1ccc(Oc2ccc(F)cc2F)cc1C1=C(O)CC(C)(C)CC1=O` [Example A-47], the pest or weed control at 250 g/ha in assay [1] (pre-emergence spray) is 50%; in the assay with Avena fatua (AVEFA) [2] (pre-emergence spray), 0%; in assay [3] (pre-emergence spray), 90%; in the assay on Lolium perenne (LOLPE) [4] (pre-emergence spray), 40%; in assay [5] (glasshouse), 30%; in the assay with Avena fatua (AVEFA) [6] (glasshouse), 10%. Further, the pest or weed control at 250 g/ha in assay [7] (glasshouse) came out at 80%; with Lolium perenne (LOLPE) [8] (glasshouse) it was 30%.
For `CCc1ccc(Oc2ccc(F)cc2)cc1C1=C(O)[C@H]2CC[C@H](C2)C1=O` (single isomer, unassigned) [Example A-92], the pest or weed control at 250 g/ha in assay [1] (pre-emergence spray) was determined as 40%; in the assay with Avena fatua (AVEFA) [2] (pre-emergence spray), 30%; in assay [3] (pre-emergence spray), 100%; in the assay on Lolium perenne (LOLPE) [4] (pre-emergence spray), 90%; in assay [5] (glasshouse), 20%; with Avena fatua (AVEFA) [6] (glasshouse), 10%. Also, the pest or weed control at 250 g/ha is 80% in assay [7] (glasshouse) and 30% in the assay on Lolium perenne (LOLPE) [8] (glasshouse).
With `CCc1ccc(Oc2ncc(C)nc2C)cc1C1=C(O)C(C)(C)OC(C)(C)C1=O` [Example A-135], the pest or weed control at 250 g/ha in assay [1] (pre-emergence spray) is 10%; with Avena fatua (AVEFA) [2] (pre-emergence spray), 0%; in assay [3] (pre-emergence spray) it was 30%; in the assay with Lolium perenne (LOLPE) [4] (pre-emergence spray), 10%; in assay [5] (glasshouse), 30%; in the assay on Avena fatua (AVEFA) [6] (glasshouse), 20%. The results for the pest or weed control at 250 g/ha (in assay [7] (glasshouse); with Lolium perenne (LOLPE) [8] (glasshouse)) were 50% and 30%, respectively.
`CCc1ccc(Oc2ncc(C(F)(F)F)cc2Cl)cc1C1=C(O)[C@@H]2CC[C@](C)(C1=O)C2(C)C` [Example A-317]: the pest or weed control at 250 g/ha (in assay [1] (pre-emergence spray); in the assay on Avena fatua (AVEFA) [2] (pre-emergence spray); in assay [3] (pre-emergence spray); in the assay with Lolium perenne (LOLPE) [4] (pre-emergence spray); in assay [5] (glasshouse); in the assay on Avena fatua (AVEFA) [6] (glasshouse)) was 100% each time. In addition, the pest or weed control at 250 g/ha (in assay [7] (glasshouse); with Lolium perenne (LOLPE) [8] (glasshouse)) was 100% in each case.
In the case of `CCc1ccc(Oc2cnc3ccccc3n2)cc1C1=C(O)C(C)(C)OC(C)(C)C1=O` [Example A-161], the pest or weed control at 250 g/ha came out at 70% in assay [1] (pre-emergence spray); 50% with Avena fatua (AVEFA) [2] (pre-emergence spray); 100% in assay [3] (pre-emergence spray); 90% in the assay on Lolium perenne (LOLPE) [4] (pre-emergence spray); 100% in assay [5] (glasshouse); 70% in the assay on Avena fatua (AVEFA) [6] (glasshouse). Also, the pest or weed control at 250 g/ha was found to be 100% in assay [7] (glasshouse) and 90% with Lolium perenne (LOLPE) [8] (glasshouse).
In the case of `CC1(C)OC(C)(C)C(O)=C(c2cc(Oc3ccc(Br)cc3Cl)ccc2C2CC2)C1=O` [Example A-352], the pest or weed control at 250 g/ha is 70% in assay [1] (pre-emergence); 20% in the assay on Avena fatua (AVEFA) [2] (pre-emergence); 100% in assay [3] (pre-emergence); 90% with Lolium perenne (LOLPE) [4] (pre-emergence); 90% in assay [5]; 70% with Avena fatua (AVEFA) [6]. Also, the pest or weed control at 250 g/ha in assay [7] came out at 100%; in the assay on Lolium perenne (LOLPE) [8], 90%.
Regarding `CCc1ccc(Oc2cc(Cl)c(Cl)nn2)cc1C1=C(O)C(C)(C)OC(C)(C)C1=O` [Example A-129], the pest or weed control at 250 g/ha in assay [1] (pre-emergence spray) was determined as 10%; in the assay with Avena fatua (AVEFA) [2] (pre-emergence spray), 0%; in assay [3] (pre-emergence spray), 30%; in the assay with Lolium perenne (LOLPE) [4] (pre-emergence spray) it was 10%; in assay [5] (glasshouse) it was 10%; in the assay on Avena fatua (AVEFA) [6] (glasshouse), 10%. In addition, the pest or weed control at 250 g/ha in assay [7] (glasshouse) worked out at 30%; in the assay on Lolium perenne (LOLPE) [8] (glasshouse), 10%.
`CCCc1cnc(Oc2ccc(CC)c(C3=C(O)C(C)(C)OC(C)(C)C3=O)c2)nc1` [Example A-128]: the pest or weed control at 250 g/ha came out at 20% in assay [1] (pre-emergence spray); 10% with Avena fatua (AVEFA) [2] (pre-emergence spray); 50% in assay [3] (pre-emergence spray); 60% in the assay on Lolium perenne (LOLPE) [4] (pre-emergence spray); 50% in assay [5] (glasshouse); 30% in the assay with Avena fatua (AVEFA) [6] (glasshouse). Also, the pest or weed control at 250 g/ha in assay [7] (glasshouse) worked out at 70%; in the assay on Lolium perenne (LOLPE) [8] (glasshouse) it was 40%.
With `CCC(=O)OC1=C(c2cc(Oc3ccc(C#N)cc3F)ccc2CC)C(=O)C(C)(C)OC1(C)C` [Example P-2], the “ALOMY damage to plant (100=total damage to plant; 0=no damage to plant)” value in assay [1] (pre-emergence, rate 250 g/ha) is on record as 80; in assay [5], 90. In addition, the “AVEFA damage to plant (100=total damage to plant; 0=no damage to plant)” value with Avena fatua (AVEFA) [2] (pre-emergence, rate 250 g/ha) came out at 70; in the assay with Avena fatua (AVEFA) [6], 70. In addition, the “ECHCG damage to plant (100=total damage to plant; 0=no damage to plant)” value in assay [3] (pre-emergence, rate 250 g/ha) amounted to 100; in assay [7] it was 100. In addition, the “LOLPE damage to plant (100=total damage to plant; 0=no damage to plant)” value is recorded as 100 in the assay with Lolium perenne (LOLPE) [4] (pre-emergence, rate 250 g/ha) and 90 with Lolium perenne (LOLPE) [8].
